The source of these data is patent US11186564B2, “Dual NAV1.2/5HT2a inhibitors for treating CNS disorders” (Sunovion Pharmaceuticals Inc., priority 2016, dated 2021).

The target of one assay is T1, recombinant human serotonin receptor 5-HT2A (Homo sapiens, UniProt P28223).
T1 construct: expressed in transfected cells; method B: loaded with Ca2+ dye
T1 sequence (P28223 whole entry): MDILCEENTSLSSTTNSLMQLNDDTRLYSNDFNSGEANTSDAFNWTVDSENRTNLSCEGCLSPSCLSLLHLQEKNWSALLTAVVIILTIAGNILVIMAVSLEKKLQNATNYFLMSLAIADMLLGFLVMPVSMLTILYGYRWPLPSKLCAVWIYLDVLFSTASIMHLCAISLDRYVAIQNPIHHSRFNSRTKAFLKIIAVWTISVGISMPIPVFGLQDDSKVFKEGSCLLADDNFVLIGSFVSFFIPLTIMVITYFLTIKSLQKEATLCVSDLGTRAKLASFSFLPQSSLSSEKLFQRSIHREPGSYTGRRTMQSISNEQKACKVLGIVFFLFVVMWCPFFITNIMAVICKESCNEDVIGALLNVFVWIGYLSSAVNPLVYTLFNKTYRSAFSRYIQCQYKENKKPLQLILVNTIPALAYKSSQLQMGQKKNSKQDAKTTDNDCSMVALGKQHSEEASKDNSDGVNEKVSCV
Description: 5-HT2A antagonist Ca2+ assay in CHO-K1 cells (method A aequorin luminescence / method B FLIPR fluorescence). The class given is cell-based. As to conditions: 5HT2A IC50, μM, antagonist mode vs EC80 of reference agonist, method A or B. An outline of the steps:
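IC50 was obtained by nonlinear regression of percent inhibition of the EC80 agonist Ca2+ response in CHO-K1 cells stably expressing human 5-HT2A. The readout was aequorin luminescence with agonist injected 15 min after compound (A), or Ca2+-dye fluorescence on FLIPR with serotonin as agonist (B).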
As to `O[C@H](COC1CCCCC1)CN1[C@@H]2CC[C@H]1CN(c1ccc(F)cc1)C2` [Example 289, (S)-1-(cyclohexyloxy)-3-((1R,5S)-3-(4-fluorophenyl)-3,8-diazabicyclo[3.2.1]octan-8-yl)propan-2-ol], the IC50 was 0.02 µM.
The same measure, in the same setting: with `OC(COC1CCCCC1)CN1CCC2(CC1)COc1ccccc12` (stereo not shown) [Example 389, 1-(cyclohexyloxy)-3-(2H-spiro[benzofuran-3,4′-piperidin]-1′-yl)propan-2-ol] the figure was 8.58 µM.

The same assay, now with this note: antagonist mode vs EC80 of reference agonist, method A or B, read-out: 5HT2A IC50.
In the case of `OC(COc1ccccc1)CN1CCCC12CCN(c1ccccc1)CC2` (stereo not shown) [Example 352, 1-phenoxy-3-(8-phenyl-1,8-diazaspiro[4.5]decan-1-yl)propan-2-ol], the half-inhibitory concentration (IC50) was greater than 5.3 µM.
The same measure, in the same setting: the same measure for `OC(COc1ccccc1)CN1C[C@@H]2C[C@H]1CN2c1ccccc1` (stereo partly drawn) [Example 307, 1-phenoxy-3-((1S,4S)-5-phenyl-2,5-diazabicyclo[2.2.1]heptan-2-yl)propan-2-ol]: 10.4 µM; for `N#Cc1ccc(O[C@H]2CCN(CCN3CCc4ccccc4C3=O)C2)cc1` [Example 32, (S)-4-((1-(2-(1-oxo-3,4-dihydroisoquinolin-2(1H)-yl)ethyl)pyrrolidin-3-yl)oxy) benzonitrile]: greater than 16.7 µM; for `COc1cccc(OC2CCN(CC3Cc4cccnc4C3)CC2)c1` (stereo not shown) [Example 153, 6-((4-(3-methoxyphenoxy)piperidin-1-yl)methyl)-6,7-dihydro-5H-cyclopenta[b]pyridine]: 0.76 µM.
Regarding `c1ccc2c(c1)CCC1(CCN(CCO[C@@H]3CCc4ccccc43)CC1)O2` [Example 431, (R)-1′-(2-((2,3-dihydro-1H-inden-1-yl)oxy)ethyl)spiro[chromane-2,4′-piperidine]], the IC50 was 0.71 µM.
`O[C@@H](COC1CCCCC1)CN1CCC(Oc2ccccc2)CC1` [Example 234, (R)-1-(cyclohexyloxy)-3-(4-phenoxypiperidin-1-yl)propan-2-ol]: the IC50 is 0.03 µM.
Same read-out and setting: with `c1ccc2c(c1)CC1(CCN(CC3COc4ccccc43)CC1)O2` (stereo not shown) [Example 395, 1′-((2,3-dihydrobenzofuran-3-yl)methyl)-3H-spiro[benzofuran-2,4′-piperidine]] the figure was greater than 10 µM.
On the same count and under the same terms, the same measure for `O=C1c2ccccc2CCN1CCN1CCCCC(Oc2ccc(F)cc2)C1` (stereo not shown) [Example 280, 2-(2-(3-(4-fluorophenoxy)azepan-1-yl)ethyl)-3,4-dihydroisoquinolin-1(2H)-one]: 4.89 µM; for `COc1cccc(O[C@H]2CCN(CCN3CCc4ccccc4C3=O)C2)c1` [Example 22, (S)-2-(2-(3-(3-methoxyphenoxy)pyrrolidin-1-yl)ethyl)-3,4-dihydroisoquinolin-1(2H)-one]: 2.34 µM.
For the molecule `Fc1ccc(O[C@H]2CCN(CC3CCc4ccncc43)C2)cc1` (stereo partly drawn) [Example 6, 7-(((S)-3-(4-fluorophenoxy)pyrrolidin-1-yl)methyl)-6,7-dihydro-5H-cyclopenta[c]pyridine], the IC50 is 3 µM.
For `O=C1c2ccccc2CCN1CCN1CCOC(Cc2ccccc2)C1` (stereo not shown) [Example 252, 2-(2-(2-benzylmorpholino)ethyl)-3,4-dihydroisoquinolin-1(2H)-one], the IC50 is greater than 16.7 µM.
For `O[C@H](COC1CCCCC1)CN1CC[C@@H]2C[C@H]1CN2c1ccccc1` [Example 326, (S)-1-(cyclohexyloxy)-3-((1S,5R)-6-phenyl-2,6-diazabicyclo[3.2.1]octan-2-yl)propan-2-ol], the IC50 is greater than 3.16 µM.
For the molecule `OC(COC1CCCCC1)CN1CCC2(CCCN2c2ccccc2)CC1` (stereo not shown) [Example 355, 1-(cyclohexyloxy)-3-(1-phenyl-1,8-diazaspiro[4.5]decan-8-yl)propan-2-ol], the IC50 is greater than 16.7 µM.
On the same count and under the same terms, the same measure for `COc1cccc(COC2CCN(CC3CCc4ccc(OC)cc43)CC2)c1` (stereo not shown) [Example 245, 1-((6-methoxy-2,3-dihydro-1H-inden-1-yl)methyl)-4-((3-methoxybenzyl)oxy)piperidine]: 0.41 µM.
The same measure, in the same setting: with `COCc1cccc(OC2CCN(CC3Cc4cccnc4C3)CC2)c1` (stereo not shown) [Example 152, 6-((4-(3-(methoxymethyl)phenoxy)piperidin-1-yl)methyl)-6,7-dihydro-5H-cyclopenta[b]pyridine] the figure was 0.22 µM; with `CC(CN1CCc2ccccc2C1=O)N1CCC(Oc2ccc(F)cc2)CC1` (stereo not shown) [Example 204, 2-(2-(4-(4-fluorophenoxy)piperidin-1-yl)propyl)-3,4-dihydroisoquinolin-1(2H)-one], 0.56 µM; with `OC(COC1COCc2ccccc21)CN1CCC(Oc2ccccc2)CC1` (stereo not shown) [Example 239, 1-(isochroman-4-yloxy)-3-(4-phenoxypiperidin-1-yl)propan-2-ol], 3.51 µM.
With `COc1ccccc1OC1CCN(CC2(C)CCc3ccccc32)CC1` (stereo not shown) [Example 96, 4-(2-methoxyphenoxy)-1-((1-methyl-2,3-dihydro-1H-inden-1-yl)methyl)piperidine], the IC50 was greater than 10 µM.
On the same count and under the same terms, with `COc1ccc2c(c1)C(CN1CCC(OCc3cccnc3)CC1)CC2` (stereo not shown) [Example 246, 3-(((1-((6-methoxy-2,3-dihydro-1H-inden-1-yl)methyl)piperidin-4-yl)oxy)methyl)pyridine] the figure was 0.98 µM; with `Fc1ccccc1OC1CCN(CC2COc3ccccc32)CC1` (stereo not shown) [Example 132, 1-((2,3-dihydrobenzofuran-3-yl)methyl)-4-(2-fluorophenoxy)piperidine], 0.04 µM.
On the same count and under the same terms, the same measure for `COc1ccccc1CN1CCC2(CCc3ccccc3O2)CC1` [Example 416, l′-(2-methoxybenzyl) spiro[chromane-2,4′-piperidine]]: 1.05 µM; for `CC1(OCC(O)CN2CCN(c3ccccc3)CC2)COc2ccccc21` (stereo not shown) [Example 79, 1-((3-methyl-2,3-dihydrobenzofuran-3-yl)oxy)-3-(4-phenylpiperazin-1-yl)propan-2-ol]: 0.36 µM.
On the same count and under the same terms, with `O[C@@H](COC1CCCCC1)CN1CCC[C@H](Oc2ccc(F)cc2)C1` [Example 269, (R)-1-(cyclohexyloxy)-3-((S)-3-(4-fluorophenoxy)piperidin-1-yl)propan-2-ol] the figure was 2.17 µM.
Take `Cc1cccc(N2CCN(CC3(O)CCOc4ccccc43)CC2)c1C` (stereo not shown) [Example 58, 4-((4-(2,3-dimethylphenyl)piperazin-1-yl)methyl)chroman-4-ol]: the IC50 came to 0.49 µM.
Still for that read-out and setting: with `c1ccc2c(c1)CC1(CCN(CC3Cc4cccnc4C3)CC1)O2` (stereo not shown) [Example 397, 1′-((6,7-dihydro-5H-cyclopenta[b]pyridin-6-yl)methyl)-3H-spiro[benzofuran-2,4′-piperidine]] the figure was 2.76 µM; with `O=C1c2ccccc2CCN1CCN1CCC[C@@H](Oc2ccc(F)cc2)C1` [Example 264, (R)-2-(2-(3-(4-fluorophenoxy)piperidin-1-yl)ethyl)-3,4-dihydroisoquinolin-1(2H)-one], 0.94 µM; with `COc1cccc(OC2CCN(CC3CCOc4ccccc43)CC2)c1` (stereo not shown) [Example 164, 1-(chroman-4-ylmethyl)-4-(3-methoxyphenoxy)piperidine], 0.86 µM.
The same measure, in the same setting: with `O=C1CC2(CCN(CC3CCc4ccccc43)CC2)Oc2ccccc21` (stereo not shown) [Example 444, l′-((2,3-dihydro-1H-inden-1-yl)methyl)spiro[chromane-2,4′-piperidin]-4-one] the figure was 1.44 µM; with `COc1ccccc1N1CCC2(CCN(CC3CCc4cccnc43)C2)C1` (stereo not shown) [Example 336, 2-((6,7-dihydro-5H-cyclopenta[b]pyridin-7-yl)methyl)-7-(2-methoxyphenyl)-2,7-diazaspiro[4.4]nonane], 3.28 µM.

Broadly, the IC50 is the concentration needed to halve the response being measured.
